The values below come from patent US8598357B2, “Benzodioxole piperidine compounds” (Hoffmann-La Roche Inc., priority 2011, dated 2013).

One test concerns the target D2 receptor (Homo sapiens (Human), UniProt P14416). Kind of test: Radioligand binding assay ([3H]-spiperone) on membranes of HEK293 EBNA cells expressing human D2 receptor. The note with it: human receptor in HEK293 EBNA cells; 0.7 nM [3H]-spiperone.
The target of a further test is D3 receptor (Homo sapiens (Human), UniProt P35462). The experiment in a line: Radioligand binding assay ([3H]-spiperone) on membranes of HEK293 EBNA cells expressing human D3 receptor. The following applies: read-out: D3 Ki; human receptor in HEK293 EBNA cells; 0.5 nM [3H]-spiperone.
The target of another test is 5-HT2A receptor (Homo sapiens (Human), UniProt P28223). Kind of test: Radioligand binding assay ([3H]-ketanserin) on membranes of HEK293 EBNA cells expressing human 5-HT2A receptor. The following applies: read-out: 5HT2A Ki.
Where [1] appears, read: human receptor in HEK293 EBNA cells, 1.1 nM [3H]-ketanserin.

Molecules are shown by their SMILES. Read-outs that look alike come from different tables or passages of the source.

D3 receptor, sequence (P35462 whole entry): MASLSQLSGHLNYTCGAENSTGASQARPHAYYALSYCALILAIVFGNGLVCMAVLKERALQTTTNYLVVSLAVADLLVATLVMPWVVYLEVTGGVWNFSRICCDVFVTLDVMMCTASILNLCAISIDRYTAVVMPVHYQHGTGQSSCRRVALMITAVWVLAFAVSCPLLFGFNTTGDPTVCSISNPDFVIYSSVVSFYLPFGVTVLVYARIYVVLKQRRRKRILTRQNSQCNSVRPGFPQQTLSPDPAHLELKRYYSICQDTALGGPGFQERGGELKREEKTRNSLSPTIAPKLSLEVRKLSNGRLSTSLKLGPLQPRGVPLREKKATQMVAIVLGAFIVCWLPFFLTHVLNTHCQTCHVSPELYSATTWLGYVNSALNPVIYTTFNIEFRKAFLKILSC
D2 receptor, sequence (P14416 whole entry): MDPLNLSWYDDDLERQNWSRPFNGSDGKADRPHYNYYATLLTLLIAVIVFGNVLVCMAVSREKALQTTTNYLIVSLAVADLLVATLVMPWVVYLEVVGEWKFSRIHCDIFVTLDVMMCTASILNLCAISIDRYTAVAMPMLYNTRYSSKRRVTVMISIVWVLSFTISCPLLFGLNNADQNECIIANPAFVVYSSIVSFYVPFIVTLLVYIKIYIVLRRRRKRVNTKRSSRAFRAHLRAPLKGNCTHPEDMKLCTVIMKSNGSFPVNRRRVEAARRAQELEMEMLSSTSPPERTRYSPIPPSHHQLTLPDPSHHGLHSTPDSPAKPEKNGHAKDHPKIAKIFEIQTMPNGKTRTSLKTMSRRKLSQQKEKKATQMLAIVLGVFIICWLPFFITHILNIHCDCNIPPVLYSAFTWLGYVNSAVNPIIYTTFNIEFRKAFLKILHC
Procedure for 5-HT2A receptor: HEK293 EBNA cells were transiently transfected with expression plasmids encoding for the human D2 or D3 or for the human 5-HT2A receptor, respectively. The cells were harvested 48 h post-transfection, washed three times with cold PBS and stored at −80° C. prior to use. The pellet was suspended in cold 50 mM Tris-HCl buffer containing 10 mM EDTA (pH 7.4) and was homogenized with a Polytron (Kinematica AG, Basel, Switzerland) for 20-30 sec at 12.000 rpm. After centrifugation at 48.000×g for 30 min at 4° C., the pellet was resuspended in cold 10 mM Tris-HCl buffer containing 0.1 mM EDTA (pH 7.4), homogenized, and centrifuged as above. This pellet was further resuspended in a smaller volume of ice cold 10 mM Tris-HCl buffer containing 0.1 mM EDTA (pH 7.4) and homogenized with a Polytron for 20-30 sec at 12.000 rpm. The protein content of this homogenate was determined with the Bio-Rad (Bradford) Protein Assay (Biorad Laboratories GmbH, München, Germany) according to the instructions of the manufacturer using gamma globulin as the standard. This homogenate was stored at −80° C. in aliquots and thawed immediately prior to use.
Aliquots of membrane preparations were thawed at RT, resuspended in assay buffer (D2, D3: 50 mM Tris-HCl, 120 mM NaCl, 5 mM MgCl2, 1 mM EDTA, 5 mM KCl, 1.5 mM CaCl2, pH=7.4; 5-HT2A: 50 mM Tris-HCl, 10 mM MgCl2, 1 mM EGTA, pH=7.4), homogenized with a Polytron for 20-30 sec at 12.000 rpm and adjusted to a final concentration of approximately 7.5 μg protein/well (D2, D3) and 15 μg protein/well (5-HT2A), respectively.
The nonspecific binding was determined with equally composed reaction mixtures in the presence of 10 μM unlabelled spiperone. Per well 45 μl of Microscint 40 (Perkin Elmer, Schwerzenbach, Switzerland) was added, plates for sealed, shaken for 20 min and counted for 3 min on a Topcount Microplate Scintillation Counter (Can berra Packard SA, Ziirich, Switzerland) with quenching correction.
The CPM value for each duplicate of a concentration of competing compound was averaged (y1), then the % specific binding was calculated according to the equation (((y1−non-specific)/(total binding−non-specific))×100). Graphs were plotted with the % specific binding using XLfit, a curve fitting program that iteratively plots the data using Levenberg-Marquardt algorithm. The single site competition analysis equation used was y=A+((B−A)/(1+((x/C)D))), where y is the % specific binding, A is the minimum y, B is the maximum y, C is the IC50, x is the log 10 of the concentration of the competing compound and D is the slope of the curve (the Hill Coefficient). […] The affinity constant (K) was calculated using the Cheng-Prusoff equation Ki=(IC50/1+([L]/Kd), where [L] is the concentration of radioligand and Kd is the dissociation constant of the radioligand at the receptor as determined by the saturation isotherm.

Take `COC(C)CC(=O)N[C@H]1CC[C@H](CCN2CCC(c3cccc4c3OCO4)CC2)CC1` (stereo partly drawn) [Example 27, Trans-N-{4-[2-(4-Benzo[1,3]dioxol-4-yl-piperidin-1-yl)-ethyl]-cyclohexyl}-3-methoxy-butyramide]: the inhibitory constant (Ki) at D2 receptor worked out at 402 nM; at D3 receptor, 7.52 nM; on 5-HT2A receptor, 33.6 nM.
For `O=C(N[C@H]1CC[C@H](CCN2CCC(c3cccc4c3OCO4)CC2)CC1)C1CC(Cl)C1` (stereo partly drawn) [Example 28, 3-Chloro-cyclobutanecarboxylic acid trans-{4-[2-(4-benzo[1,3]dioxol-4-yl-piperidin-1-yl)-ethyl]-cyclohexyl}-amide], the Ki at D2 receptor came to 305 nM; on D3 receptor, 6.36 nM; on 5-HT2A receptor, 18.6 nM.
Take `O=C(CC1COC1)N[C@H]1CC[C@H](CCN2CCC(c3cccc4c3OCO4)CC2)CC1` [Example 29, Trans-N-{4-[2-(4-Benzo[1,3]dioxol-4-yl-piperidin-1-yl)-ethyl]cyclohexyl}-2-oxetan-3-yl-acetamide]: the Ki on D2 receptor turned out to be 258 nM; at D3 receptor, 5.19 nM; on 5-HT2A receptor (setting [1]), 21.9 nM.
Regarding `CO[C@@H]1CC[C@@H](CC(=O)N[C@H]2CC[C@H](CCN3CCC(c4cccc5c4OCO5)CC3)CC2)C1` [Example 30, Trans-N-{4-[2-(4-Benzo[1,3]dioxol-4-yl-piperidin-1-yl)-ethyl]-cyclohexyl}-2-((1R,3R)-3-methoxy-cyclopentyl)-acetamide], the Ki at D2 receptor amounted to 331 nM; on D3 receptor, 5.29 nM; on 5-HT2A receptor (setting [1]) it was 27.4 nM.
For the compound `O=C(CC1(O)CCOCC1)N[C@H]1CC[C@H](CCN2CCC(c3cccc4c3OCO4)CC2)CC1` [Example 31, Trans-N-{4-[2-(4-Benzo[1,3]dioxol-4-yl-piperidin-1-yl)-ethyl]-cyclohexyl}-2-(4-hydroxy-tetrahydro-pyran-4-yl)-acetamide], the figures for the Ki on D2 receptor, on D3 receptor and at 5-HT2A receptor (setting [1]) were 306 nM, 7.15 nM and 24.9 nM, respectively.
In the case of `CC(C)(O)C(=O)N[C@H]1CC[C@H](CCN2CCC(c3cccc4c3OCO4)CC2)CC1` [Example 32, Trans-N-{4-[2-(4-Benzo[1,3]dioxol-4-yl-piperidin-1-yl)-ethyl]-cyclohexyl}-2-hydroxy-2-methyl-propionamide], the inhibition constant (Ki) is 407 nM on D2 receptor, 25 nM on D3 receptor and 4.77 nM at 5-HT2A receptor.
For the compound `CO[C@@H](C)C(=O)N[C@H]1CC[C@H](CCN2CCC(c3cccc4c3OCO4)CC2)CC1` [Example 33, Trans-(S)—N-{4-[2-(4-Benzo[1,3]dioxol-4-yl-piperidin-1-yl)-ethyl]-cyclohexyl}-2-methoxy-propionamide], the Ki stood at 464 nM on D2 receptor, 50.3 nM on D3 receptor and 29.1 nM on 5-HT2A receptor (setting [1]).
For `CO[C@H](C)C(=O)N[C@H]1CC[C@H](CCN2CCC(c3cccc4c3OCO4)CC2)CC1` [Example 34, Trans-(R)—N-{4-[2-(4-Benzo[1,3]dioxol-4-yl-piperidin-1-yl)-ethyl]-cyclohexyl}-2-methoxy-propionamide], in that order: 504 nM, 27.8 nM and 9.57 nM.
As for `CC(C)(O)CC(=O)N[C@H]1CC[C@H](CCN2CCC(c3cccc4c3OCO4)CC2)CC1` [Example 35, Trans-N-{4-[2-(4-Benzo[1,3]dioxol-4-yl-piperidin-1-yl)-ethyl]-cyclohexyl}-3-hydroxy-3-methyl-butyramide], the Ki at D2 receptor worked out at 282 nM; at D3 receptor, 5.92 nM; at 5-HT2A receptor (setting [1]) it was 26.1 nM.
In the same order, the values of `O=C(N[C@H]1CC[C@H](CCN2CCC(c3cccc4c3OCO4)CC2)CC1)c1ccc(Cl)cc1` [Example 36, Trans-N-{4-[2-(4-Benzo[1,3]dioxol-4-yl-piperidin-1-yl)-ethyl]-cyclohexyl}-4-chloro-benzamide] are 147 nM, 6.36 nM and 21.8 nM.
In the case of `O=C(N[C@H]1CC[C@H](CCN2CCC(c3cccc4c3OCO4)CC2)CC1)c1ccc(F)cc1` [Example 37, Trans-N-{4-[2-(4-Benzo[1,3]dioxol-4-yl-piperidin-1-yl)-ethyl]-cyclohexyl}-4-fluoro-benzamide], the figures for the Ki at D2 receptor, on D3 receptor and at 5-HT2A receptor were 234 nM, 4.89 nM and 13.1 nM, respectively.
In the same order, the values of `O=C(N[C@H]1CC[C@H](CCN2CCC(c3cccc4c3OCO4)CC2)CC1)[C@H](O)C(F)(F)F` [Example 38, Trans-(S)—N-{4-[2-(4-Benzo[1,3]dioxol-4-yl-piperidin-1-yl)-ethyl]-cyclohexyl}-3,3,3-trifluoro-2-hydroxy-propionamide] are 209 nM, 7.63 nM and 20.8 nM.
In the same order, the values of `O=C(N[C@H]1CC[C@H](CCN2CCC(c3cccc4c3OCO4)CC2)CC1)[C@@H](O)C(F)(F)F` [Example 39, Trans-(R)—N-{4-[2-(4-Benzo[1,3]dioxol-4-yl-piperidin-1-yl)-ethyl]-cyclohexyl}-3,3,3-trifluoro-2-hydroxy-propionamide] are 284 nM, 19.9 nM and 19.4 nM.
On to `O=C(C[C@@H]1CCCCO1)N[C@H]1CC[C@H](CCN2CCC(c3cccc4c3OCO4)CC2)CC1` [Example 40, Trans-N-{4-[2-(4-Benzo[1,3]dioxol-4-yl-piperidin-1-yl)-ethyl]-cyclohexyl}-2-(S)-tetrahydro-pyran-2-yl-acetamide], for which the Ki on D2 receptor was 422 nM; at D3 receptor, 9 nM; at 5-HT2A receptor, 27.9 nM.
For the compound `O=C(C[C@H]1CCCCO1)N[C@H]1CC[C@H](CCN2CCC(c3cccc4c3OCO4)CC2)CC1` [Example 41, Trans-N-{4-[2-(4-Benzo[1,3]dioxol-4-yl-piperidin-1-yl)-ethyl]-cyclohexyl}-2-(R)-tetrahydro-pyran-2-yl-acetamide], the Ki on D2 receptor worked out at 491 nM; on D3 receptor, 7.65 nM; on 5-HT2A receptor, 12.6 nM.
Take `O=C(C[C@@H]1CCCOC1)N[C@H]1CC[C@H](CCN2CCC(c3cccc4c3OCO4)CC2)CC1` [Example 42, Trans-N-{4-[2-(4-Benzo[1,3]dioxol-4-yl-piperidin-1-yl)-ethyl]-cyclohexyl}-2-(S)-tetrahydro-pyran-3-yl-acetamide]: the Ki at D2 receptor was determined as 322 nM; on D3 receptor it was 11.7 nM; at 5-HT2A receptor (setting [1]) it was 20.1 nM.
In the same order, the values of `O=C(C[C@H]1CCCOC1)N[C@H]1CC[C@H](CCN2CCC(c3cccc4c3OCO4)CC2)CC1` [Example 43, Trans-N-{4-[2-(4-Benzo[1,3]dioxol-4-yl-piperidin-1-yl)-ethyl]-cyclohexyl}-2-(R)-tetrahydro-pyran-3-yl-acetamide] are 408 nM, 7.8 nM and 19.8 nM.
Consider `CCOCCC(=O)N[C@H]1CC[C@H](CCN2CCC(c3cccc4c3OCO4)CC2)CC1` [Example 44, Trans-N-{4-[2-(4-Benzo[1,3]dioxol-4-yl-piperidin-1-yl)-ethyl]-cyclohexyl}-3-ethoxy-propionamide], for which the inhibition constant (Ki) on D2 receptor is 393 nM; on D3 receptor, 7.32 nM; at 5-HT2A receptor (setting [1]), 55 nM.
Turning to `O=C(CC1(O)CCC1)N[C@H]1CC[C@H](CCN2CCC(c3cccc4c3OCO4)CC2)CC1` [Example 45, Trans-N-{4-[2-(4-Benzo[1,3]dioxol-4-yl-piperidin-1-yl)-ethyl]-cyclohexyl}-2-(1-hydroxy-cyclobutyl)-acetamide], the Ki on D2 receptor worked out at 262 nM; at D3 receptor, 6.41 nM; at 5-HT2A receptor, 26.8 nM.
For `O=C(N[C@H]1CC[C@H](CCN2CCC(c3cccc4c3OCO4)CC2)CC1)C1CCCO1` (stereo partly drawn) [Example 46, Tetrahydro-furan-2-carboxylic acid-trans-{4-[2-(4-benzo[1,3]dioxol-4-yl-piperidin-1-yl)-ethyl]-cyclohexyl}-amide], the figures for the Ki at D2 receptor, at D3 receptor and at 5-HT2A receptor (setting [1]) were 464 nM, 47.6 nM and 14.4 nM, respectively.
For `O=C(N[C@H]1CC[C@H](CCN2CCC(c3cccc4c3OCO4)CC2)CC1)C1CCOC1` (stereo partly drawn) [Example 47, Tetrahydro-furan-3-carboxylic acid-trans-{4-[2-(4-benzo[1,3]dioxol-4-yl-piperidin-1-yl)-ethyl]-cyclohexyl}-amide], in that order: 165 nM, 7.61 nM and 24.1 nM.
In the same order, the values of `O=C(N[C@H]1CC[C@H](CCN2CCC(c3cccc4c3OCO4)CC2)CC1)C1CCOCC1` [Example 48, Tetrahydro-pyran-4-carboxylic acid-trans-{4-[2-(4-benzo[1,3]dioxol-4-yl-piperidin-1-yl)-ethyl]-cyclohexyl}-amide] are 184 nM, 13.8 nM and 9.52 nM.
Turning to `O=C(N[C@H]1CC[C@H](CCN2CCC(c3cccc4c3OCO4)CC2)CC1)C1(O)CC1` [Example 49, 1-Hydroxy-cyclopropanecarboxylic acid-trans-{4-[2-(4-benzo[1,3]dioxol-4-yl-piperidin-1-yl)-ethyl]-cyclohexyl}-amide], the Ki on D2 receptor amounted to 245 nM; on D3 receptor, 6.09 nM; at 5-HT2A receptor, 8.17 nM.
In the case of `O=C(N[C@H]1CC[C@H](CCN2CCC(c3cccc4c3OCO4)CC2)CC1)C1(C(F)(F)F)CC1` [Example 50, Trifluoromethyl-cyclopropanecarboxylic acid-trans-N-{4-[2-(4-benzo[1,3]dioxol-4-yl-piperidin-1-yl)-ethyl]-cyclohexyl}-amide], the Ki on D2 receptor turned out to be 246 nM; on D3 receptor, 40.9 nM; at 5-HT2A receptor (setting [1]), 19 nM.
In the case of `CCC(C)C(=O)N[C@H]1CC[C@H](CCN2CCC(c3cccc4c3OCO4)CC2)CC1` (stereo partly drawn) [Example 51, Trans-N-{4-[2-(4-Benzo[1,3]dioxol-4-yl-piperidin-1-yl)-ethyl]-cyclohexyl}-2-methyl-butyramide], the inhibition constant Ki was determined as 352 nM on D2 receptor, 13.8 nM on D3 receptor and 25 nM at 5-HT2A receptor.
